The results in this text go back to PubChem BioAssay (NCI).

What all share (assay): DTP human tumour cell line panel, 48 h
The subject of assay [1] is 786-0 renal.
For assay [2], the system named is HCT-116 colon.
The test system of assay [3] is KM12 colon.
For assay [4], the system named is LOX IMVI melanoma.
The subject of assay [5] is M14 melanoma.
Assay [6] has as its system NCI-H23 lung.
Assay [7] concerns NCI-H460 lung.
Assay [8] has as its system NCI-H522 lung.
For assay [9], the system named is SF-539 CNS.
The test system of assay [10] is SK-MEL-2 melanoma.

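How tested: cells in 96-well plates exposed to compound for 48 hours at five concentrations. GI50 = concentration required for 50% inhibition of growth. TGI is the concentration that stops growth completely.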

By GI50 is commonly meant the concentration giving 50% growth inhibition. As usually defined, the TGI is the concentration giving total growth inhibition. Lower therefore signals more potent growth arrest. `Cn1cc(-c2ccc3ncc(-c4ccc(CC(=O)Nc5cc(C(C)(C)C)nn5C)cc4)cc3c2)cn1`: the GI50 in assay [1] is 1.28 µM; in assay [2], 0.887 µM; in assay [3], 0.151 µM; in assay [4], 1.23 µM; in assay [5] it was 0.984 µM; in assay [6] it was 1.1 µM. Further, the GI50 in [7] was 0.786 µM; in [8], 0.995 µM; in [9], 2.22 µM; in assay [10] it was 0.789 µM. Also, the TGI in [1] was more than 20 µM; in assay [2], more than 20 µM; in [3] it was 3 µM; in [4], more than 20 µM; in [5], more than 20 µM; in assay [6], more than 20 µM. Besides, the TGI in assay [7] was more than 20 µM; in assay [8] it was 9.06 µM; in [9], more than 20 µM; in [10] it was 7.14 µM.
With `Cc1ccc(-n2c3nc(=O)n(C)c(=O)c-3nc3ccccc32)c(C)c1`, the TGI in [1] turned out to be 42.1 µM; in assay [2], 24 µM; in [3], 26.5 µM; in assay [4] it was 33.9 µM; in [5], 18.6 µM; in assay [6], 7.75 µM. The TGI in [7] turned out to be 15.3 µM; in assay [8], 29 µM; in [9] it was 26.4 µM; in assay [10], 27.5 µM.
As to `CCOC(=O)[C@@H](C)C[C@H](Cc1ccccc1)NC(=O)c1csc([C@@H](C[C@H](C(C)C)N(C)C(=O)CNC(=O)[C@H]2CCCCN2C)OC(C)=O)n1`, the GI50 is 1.37 µM in assay [1]; 0.529 µM in [2]; 0.556 µM in assay [3]; 2.14 µM in assay [4]; 0.804 µM in assay [5]; 2.34 µM in [6]. In addition, the GI50 in [7] was 0.612 µM; in assay [8], 0.463 µM; in assay [9], 1.74 µM; in assay [10], 0.69 µM. Also, the TGI in assay [1] is more than 14.3 µM; in assay [2], more than 14.3 µM; in assay [3], more than 14.3 µM; in [4], more than 14.3 µM; in [5], 7.31 µM; in assay [6], more than 14.3 µM. The TGI in assay [7] was more than 6.66 µM; in assay [8], more than 3.79 µM; in [9], 5.46 µM; in assay [10], more than 14.3 µM.
On to `CN(C)CCCOc1ccc(NC2=C(Cl)C(=O)C(Nc3ccc(OCCCN(C)C)cc3)=C(Cl)C2=O)cc1`, for which the GI50 is 1.59 µM in [1]; 0.183 µM in assay [2]; 0.801 µM in assay [3]; 0.422 µM in assay [4]; 1.45 µM in assay [5]; 0.292 µM in [6]. The GI50 is 0.872 µM in assay [7], 0.236 µM in assay [8], 1.79 µM in assay [9] and 1.66 µM in assay [10]. Moreover, the TGI in [1] came out at 2.98 µM; in assay [2] it was 0.368 µM; in assay [3], 2.25 µM; in assay [4], 0.902 µM; in assay [5] it was 2.9 µM; in assay [6] it was 1.02 µM. Besides, the TGI came to 2.55 µM in assay [7], 0.602 µM in [8], 3.19 µM in assay [9] and 3.31 µM in [10].
In the case of `CCCC(O)[C@@]1(CC)CC(C)C(O)(C2(C)C[C@H](C)[C@@H](C(CC)C(=O)C(C)[C@@H](O)[C@H](C)C3OC(O)(C(CC)C(=O)O)[C@@H](C)C(O)C3CC)O2)O1` (stereo not given in full), the TGI in assay [1] was determined as 5.07 µM; in assay [2], 1.6 µM; in [3], 2.06 µM; in [4] it was 1.57 µM; in assay [5] it was 2.15 µM; in [6], 2.28 µM. The concentration for total growth inhibition (TGI) in [7] was found to be 2.14 µM; in assay [8] it was 0.537 µM; in [9], 2.76 µM; in [10], 1.73 µM.
For `CN(C)CCNC(=O)Nc1ccc(N(C)c2ccnc(Nc3ccc(CS(C)(=O)=O)cc3)n2)cc1`, the GI50 is more than 25 µM in assay [1]; more than 25 µM in [2]; 9.88 µM in [3]; more than 25 µM in [4]; more than 25 µM in [5]; more than 25 µM in [6]. Further, the GI50 in assay [7] was more than 25 µM; in assay [8] it was more than 16.9 µM; in assay [9], more than 20.9 µM; in [10] it was more than 25 µM. Moreover, the total growth inhibition concentration (TGI) in [1], in assay [2], in assay [3], in [4], in assay [5] and in assay [6] was more than 25 µM throughout. Moreover, the TGI in [7], in [8], in assay [9] and in assay [10] was more than 25 µM each time.
In the case of `CC(C)(C)OC(=O)N[C@H]1CC(=O)c2ccccc2N(CC(=O)O)C1=O`, the TGI in assay [1] was more than 100 µM; in assay [2], 75 µM; in assay [3], more than 100 µM; in [4], more than 100 µM; in assay [5], more than 100 µM; in assay [6], more than 100 µM. Moreover, the TGI in [7], in [8], in assay [9] and in [10] was more than 100 µM throughout.
`COC(=O)C1CCC(C)CC1=O` (stereo not given): the TGI in assay [1], in assay [2], in [3], in [4], in assay [5] and in assay [6] was more than 100 µM in each case. Further, the TGI in assay [7], in assay [8], in [9] and in assay [10] was more than 100 µM each time.
As for `O=C1OC(=O)c2c1nc1ccccc1c2-c1ccccc1`, the TGI in assay [1], in [2], in assay [3], in [4], in assay [5] and in assay [7] was more than 100 µM each time. The TGI in [8], in [9] and in assay [10] was more than 100 µM throughout.
As for `OCCNc1nc2ccccc2c2[nH]c3ccccc3c12`, the GI50 in assay [1] is 0.407 µM; in assay [2] it was 0.278 µM; in assay [3] it was 0.483 µM; in assay [4] it was 0.419 µM; in [5] it was 0.699 µM; in [6], 0.496 µM. The GI50 in assay [7] is 0.305 µM; in [8], 0.36 µM; in assay [9] it was 0.615 µM; in [10] it was 0.907 µM. Also, the TGI was 1.92 µM in [1]; 1.68 µM in assay [2]; 4.63 µM in [3]; 1.8 µM in assay [4]; 2.03 µM in assay [5]; 1.88 µM in assay [6]. Further, the TGI in assay [7] was found to be 1.24 µM; in assay [8], 1.73 µM; in assay [9] it was 3.68 µM; in [10] it was 3.29 µM.
On to `Nc1ncnc2c1c(-c1ccc(Oc3ccccc3)cc1)nn2CC1SSCC1O` (stereo not given), for which the GI50 is 4.86 µM in [1]; 0.59 µM in [2]; 0.324 µM in assay [3]; 0.335 µM in [4]; 0.0609 µM in assay [5]; 1.7 µM in assay [6]. The GI50 was 0.111 µM in [7], 2.62 µM in assay [8], 1.05 µM in [9] and 0.825 µM in assay [10]. Further, the TGI came out at 11.2 µM in [1]; 4.65 µM in assay [2]; 7.67 µM in assay [3]; 4.96 µM in assay [4]; 0.121 µM in assay [5]; 7.97 µM in assay [6]. For the same compound, the TGI in [7] is 7.97 µM; in assay [8], 9.49 µM; in assay [9], 8.19 µM; in assay [10] it was 2.15 µM.
As to `S=C(Sc1ccc(Cl)cc1)Sc1ccc(Cl)cc1`, the GI50 is 1.94 µM in [1]; 1.82 µM in [2]; 2.74 µM in [3]; 1.13 µM in [4]; 2.03 µM in [5]; 1.75 µM in assay [6]. For the same compound, the GI50 in assay [7] was 3.12 µM; in [8], 1.11 µM; in assay [9], 1.74 µM; in [10], 4.61 µM. The TGI came to 3.6 µM in [1]; 3.53 µM in assay [2]; 8.64 µM in assay [3]; 2.37 µM in assay [4]; 3.95 µM in assay [5]; 3.78 µM in assay [6]. Moreover, the TGI in [7] amounted to 13.4 µM; in assay [8] it was 2.33 µM; in assay [9], 3.84 µM; in [10], 16.7 µM.
With `Cc1cc(OC2OC(CO)C(O)C(O)C2O)ccc1O` (stereo not given), the TGI in [1], in assay [2], in assay [3], in [4], in assay [5] and in [6] was more than 100 µM each time. Also, the TGI in assay [7], in [8], in assay [9] and in assay [10] was more than 100 µM each time.
Turning to `OCC1OC(OC2(CO)OC(CO)C(O)C2O)C(O)C(O)C1O` (stereo not given), the GI50 in assay [1], in assay [2], in assay [3], in assay [4], in [5] and in assay [6] was more than 100 µM each time. The GI50 in [7], in [8], in assay [9] and in assay [10] was more than 100 µM each time. The concentration for total growth inhibition (TGI) in assay [1], in [2], in [3], in assay [4], in assay [5] and in [6] was more than 100 µM throughout. Moreover, the TGI in [7], in [8], in assay [9] and in assay [10] was more than 100 µM throughout.
With `CNC(=O)OCc1nc(SSc2nc(COC(=O)NC)c(COC(=O)NC)n2C)n(C)c1COC(=O)NC`, the TGI in assay [1], in [2], in [3], in assay [4], in assay [5] and in [6] was more than 100 µM throughout. Also, the TGI in assay [7], in assay [8], in [9] and in [10] was more than 100 µM in each case.
Consider `COS(=O)c1cc(Cl)cc(Cl)c1OC(=O)CSSCC(=O)Oc1c(Cl)cc(Cl)cc1S(=O)OC` (stereo not given), for which the TGI in assay [1] was 54.5 µM; in [3] it was 36.2 µM; in assay [4], 43.8 µM; in assay [5] it was 46.3 µM; in assay [6], 27.8 µM; in assay [7] it was 55.5 µM. Also, the figures for the TGI in assay [8], in assay [9] and in [10] were 30.2 µM, 47.6 µM and 51.4 µM, respectively.
Regarding `O=[N+]([O-])/C=C/c1ccc2ccccc2c1`, the TGI in assay [1] was more than 20.4 µM; in assay [3], 3.09 µM; in assay [4], 7.81 µM; in [5], more than 23.7 µM; in [6], more than 23.5 µM; in assay [7], more than 23.5 µM. Moreover, the total growth inhibition concentration (TGI) in [8] was 33.1 µM; in [9], more than 100 µM; in assay [10], more than 61.6 µM.
Consider `CCOC(=O)C1=C(C)N(NC(N)=O)C2(N)N(NC(N)=O)C(C)=C(C(=O)OCC)C12C#N` (stereo not given), for which the TGI in assay [1], in assay [2], in assay [3], in assay [4], in [5] and in assay [7] was more than 100 µM throughout. The TGI in [8], in [9] and in assay [10] was more than 100 µM each time.
As for `Nc1nc(-c2ccccc2)c(CC(=O)O)s1`, the TGI in assay [1], in [2], in assay [3], in assay [4], in assay [5] and in assay [7] was more than 100 µM in each case. For the same compound, the TGI in [8], in assay [9] and in assay [10] was more than 100 µM each time.
